Target: wild-type human cardiac sodium channel, hNav1.5 (Homo sapiens, UniProt Q14524)
Experiment: Late INa screening assay (QPatch whole cell patch clamp, HEK293)
Assay type: cell-based
Conditions: HEK293, percent block of late INa; compound at 1 μM; 10 μM Tefluthrin; read-out: Late INa 1 μM
Experimental: The late sodium current (Late INa) and peak sodium current (Peak INa) assays are performed on an automated electrophysiology platform, QPatch 16× (Sophion Bioscience, Copenhagen, Denmark), which uses the whole cell patch clamp technique to measure currents through the cell membrane of up to 16 cells at a time. The assay uses an HEK293 (human embryonic kidney) cell line heterologously expressing the wild-type human cardiac sodium channel, hNav1.5, purchased from Millipore (Billerica, Mass.). No beta subunits were coexpressed with the Na channel alpha subunit. Cells are maintained with standard tissue culture procedures and stable channel expression is maintained with 400 μg/mL Geneticin in the culture medium. Cells isolated for use on QPatch are incubated for 5 minutes in Detachin 1×(Genlantis, San Diego, USA) at 37° C. to ensure that 80-90% of the cells are single and not part of a cell cluster. Experiments are carried out at 23-25° C.
For both the Late INa and Peak INa assays, series resistance compensation is set to 100% and series resistance and whole-cell compensation are performed automatically. Currents are digitized at 25 kHz and low-pass filtered at 12 kHz and 10 kHz for the late and peak INa assays, respectively. Currents through open sodium channels are automatically recorded and stored in the Sophion Bioscience Oracle database (Sophion Bioscience, Copenhagen, Denmark). Analysis is performed using QPatch Assay and database software and data are compiled in Excel.
Compound stocks are routinely made by the Gilead Sample Bank in plastic vials to 10 mM in dimethyl sulfoxide (DMSO). In some cases, when compounds are not soluble in DMSO, they are made in 100% ethanol. Stocks are sonicated as necessary. The extracellular solution for screening Late INa is composed of: 140 mM NaCl, 4 mM KCl, 1.8 mM CaCl2, 0.75 mM MgCl2 and 5 mM HEPES with pH adjusted to 7.4 using NaOH. The intracellular solution used to perfuse the inside of the cells for both the Late INa and Peak INa assays contains: 120 mM CsF, 20 mM CsCl, 5 mM EGTA, 5 mM HEPES and pH adjusted to 7.4 with CsOH. Compounds are diluted in extracellular solution to 1 μM in glass vials and then transferred to glass well plates before robotic addition to the cells. The 0 mM Na extracellular solution (0Na-ECF) used at the end of each experiment for the Late INa and Peak INa assays to measure baseline current contains: 140 mM N-methyl-D-glucamine; 4 mM KCl; 1.8 mM CaCl2; 0.75 mM MgCl2; 5 mM HEPES and pH was adjusted to 7.4 with HCl.
For the Late INa assay, sodium channels are activated every 10 seconds (0.1 Hz) by depolarizing the cell membrane to −20 mV for 250 milliseconds (ms) from a holding potential of −120 mV. In response to a −20 mV voltage step, typical hNav1.5 sodium currents activate rapidly to a peak negative current and then inactivate nearly completely within 3-4 ms.
Compounds were tested to determine their activity in blocking the late sodium current. Late INa was generated by adding 10 μM Tefluthrin (pyrethroid) to the extracellular solution while recording Na currents. […] ATX-II and tefluthrin occupy distinct, non-overlapping binding sites and modify Na^+ channel function differently to increase late INa. […] After establishing the whole cell recording configuration, late INa activator is added to each well 4 times over a 16-17 minute period so that the late component of the Na current reaches a stable value.
Results are reported as percent block of late INa.

Chain of wild-type human cardiac sodium channel, hNav1.5 (Q14524 whole entry): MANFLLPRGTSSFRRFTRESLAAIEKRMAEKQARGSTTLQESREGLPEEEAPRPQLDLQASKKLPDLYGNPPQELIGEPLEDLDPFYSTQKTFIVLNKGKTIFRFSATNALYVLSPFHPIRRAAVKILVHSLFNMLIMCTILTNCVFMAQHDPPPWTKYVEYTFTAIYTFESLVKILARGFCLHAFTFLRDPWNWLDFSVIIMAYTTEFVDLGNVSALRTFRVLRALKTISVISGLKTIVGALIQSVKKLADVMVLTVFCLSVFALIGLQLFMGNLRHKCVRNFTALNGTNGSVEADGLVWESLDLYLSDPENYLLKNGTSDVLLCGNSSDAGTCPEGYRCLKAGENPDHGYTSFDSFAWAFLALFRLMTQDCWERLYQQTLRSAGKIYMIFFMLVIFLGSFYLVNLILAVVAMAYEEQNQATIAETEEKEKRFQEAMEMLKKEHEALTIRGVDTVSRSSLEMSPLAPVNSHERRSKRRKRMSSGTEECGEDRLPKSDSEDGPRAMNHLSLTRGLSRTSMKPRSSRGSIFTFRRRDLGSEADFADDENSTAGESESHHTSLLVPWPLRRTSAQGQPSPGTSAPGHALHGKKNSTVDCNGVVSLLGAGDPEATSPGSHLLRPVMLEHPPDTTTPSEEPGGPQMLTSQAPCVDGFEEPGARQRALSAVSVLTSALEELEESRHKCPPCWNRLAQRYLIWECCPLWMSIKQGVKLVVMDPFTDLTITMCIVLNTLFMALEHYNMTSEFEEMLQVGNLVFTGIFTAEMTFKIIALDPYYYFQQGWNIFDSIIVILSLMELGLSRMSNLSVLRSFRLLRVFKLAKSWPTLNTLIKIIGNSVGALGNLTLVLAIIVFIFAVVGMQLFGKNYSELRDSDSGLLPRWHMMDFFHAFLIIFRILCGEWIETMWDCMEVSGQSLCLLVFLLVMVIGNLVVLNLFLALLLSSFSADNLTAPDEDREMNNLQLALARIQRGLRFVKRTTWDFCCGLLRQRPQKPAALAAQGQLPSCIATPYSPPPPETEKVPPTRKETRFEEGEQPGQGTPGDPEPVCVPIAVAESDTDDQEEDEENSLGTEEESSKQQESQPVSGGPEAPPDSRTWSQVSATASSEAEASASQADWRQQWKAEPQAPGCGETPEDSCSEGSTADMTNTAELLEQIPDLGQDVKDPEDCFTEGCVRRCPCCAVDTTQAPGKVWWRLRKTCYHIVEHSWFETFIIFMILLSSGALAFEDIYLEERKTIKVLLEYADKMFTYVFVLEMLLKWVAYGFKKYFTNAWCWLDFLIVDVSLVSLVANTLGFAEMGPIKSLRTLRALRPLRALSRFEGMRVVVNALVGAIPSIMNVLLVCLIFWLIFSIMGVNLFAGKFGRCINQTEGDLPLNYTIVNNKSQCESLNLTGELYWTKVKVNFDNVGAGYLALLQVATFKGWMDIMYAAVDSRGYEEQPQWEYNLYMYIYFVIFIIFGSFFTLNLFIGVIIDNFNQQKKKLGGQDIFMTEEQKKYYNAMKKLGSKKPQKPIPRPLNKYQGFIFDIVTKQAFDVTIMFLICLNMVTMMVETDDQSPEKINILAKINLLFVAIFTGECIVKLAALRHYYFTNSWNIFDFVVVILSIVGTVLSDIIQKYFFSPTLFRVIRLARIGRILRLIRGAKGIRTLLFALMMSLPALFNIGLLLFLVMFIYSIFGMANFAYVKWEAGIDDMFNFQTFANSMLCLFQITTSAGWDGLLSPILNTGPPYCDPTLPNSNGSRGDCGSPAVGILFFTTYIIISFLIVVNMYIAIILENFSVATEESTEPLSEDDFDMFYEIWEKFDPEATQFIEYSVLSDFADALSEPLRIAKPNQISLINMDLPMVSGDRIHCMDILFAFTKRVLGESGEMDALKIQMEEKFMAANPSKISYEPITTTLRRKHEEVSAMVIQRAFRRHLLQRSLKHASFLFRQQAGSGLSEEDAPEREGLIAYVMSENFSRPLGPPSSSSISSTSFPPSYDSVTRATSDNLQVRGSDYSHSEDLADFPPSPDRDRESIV

Row | SMILES | inhibition at 1 µM
1 | O=C1c2cc(-c3cccc(Oc4ccccc4)c3)ccc2OCCN1Cc1ncccn1 [II-195, 7-(3-phenoxyphenyl)-4-(pyrimidin-2-ylmethyl)-3,4-dihydrobenzo[f][1,4]oxazepin-5(2H)-one] | 66%
2 | O=C1c2cc(-c3ccc(OC(F)(F)F)cc3)ccc2OCCN1Cc1ccc2c(c1)OCCO2 [II-5, 4-((2,3-dihydrobenzo[b][1,4]dioxin-6-yl)methyl)-7-(4-(trifluoromethoxy)phenyl)-3,4-dihydrobenzo[f][1,4]oxazepin-5(2H)-one] | 26%
3 | O=C1c2cc(-c3ccc(OC(F)(F)F)cc3)ccc2OCCN1CCNS(=O)(=O)c1ccccc1 [II-177, N-(2-(5-oxo-7-(4-(trifluoromethoxy)phenyl)-2,3-dihydrobenzo[f][1,4]oxazepin-4(5H)-yl)ethyl)benzenesulfonamide] | 22%
4 | O=C1c2cc(-c3ccc(OC(F)F)cc3)ccc2OCCN1Cc1ccccn1 [II-159, 7-(4-(difluoromethoxy)phenyl)-4-(pyridin-2-ylmethyl)-3,4-dihydrobenzo[f][1,4]oxazepin-5(2H)-one] | 28%
5 | O=C1c2cc(Nc3ccc(C(F)(F)F)cc3)ccc2OCCN1Cc1ncccn1 [XIII-3, 4-(pyrimidin-2-ylmethyl)-7-(4-(trifluoromethyl)phenylamino)-3,4-dihydrobenzo[f][1,4]oxazepin-5(2H)-one] | 17%
6 | C[C@H](c1ncccn1)N1CCOc2ccc(-c3ccc(C(F)(F)F)cc3)cc2C1=O [II-95, (R)-4-(1-(pyrimidin-2-yl)ethyl)-7-(4-(trifluoromethyl)phenyl)-3,4-dihydrobenzo[f][1,4]oxazepin-5(2H)-one] | 19%
7 | O=C1c2cc(-c3ccc(F)cc3)ccc2OCCN1Cc1ncccn1 [II-104, 7-(4-fluorophenyl)-4-(pyrimidin-2-ylmethyl)-3,4-dihydrobenzo[f][1,4]oxazepin-5(2H)-one] | 21%
8 | O=C(Cc1ncccn1)N1CCOc2ccc(-c3ccc(C(F)(F)F)cc3)cc2C1 [III-30, 2-(pyrimidin-2-yl)-1-(7-(4-(trifluoromethyl)phenyl)-2,3-dihydrobenzo[f][1,4]oxazepin-4(5H)-yl)ethanone] | 16%
9 | COCCN1CCOc2ccc(-c3ccc(OC(F)(F)F)cc3)cc2C1=O [II-11, 4-(2-methoxyethyl)-7-(4-(trifluoromethoxy)phenyl)-3,4-dihydrobenzo[f][1,4]oxazepin-5(2H)-one] | 23%
10 | O=C1c2cc(-c3ccc(OC(F)(F)F)cc3)ccc2OCCN1CC(F)F [II-6, 4-(2,2-difluoroethyl)-7-(4-(trifluoromethoxy)phenyl)-3,4-dihydrobenzo[f][1,4]oxazepin-5(2H)-one] | 16%
11 | O=C1NC(Cc2ccccn2)COc2ccc(-c3ccc(OC(F)(F)F)cc3)cc21 (stereo not drawn) [II-142, 3-(pyridin-2-ylmethyl)-7-(4-(trifluoromethoxy)phenyl)-3,4-dihydrobenzo[f][1,4]oxazepin-5(2H)-one] | 19%
12 | CCS(=O)(=O)NCCN1CCOc2ccc(-c3ccc(OC(F)(F)F)cc3)cc2C1=O [II-178, N-(2-(5-oxo-7-(4-(trifluoromethoxy)phenyl)-2,3-dihydrobenzo[f][1,4]oxazepin-4(5H)-yl)ethyl)ethanesulfonamide] | 19%
13 | [2H]C1([2H])Oc2ccc(-c3ccc(OC(F)(F)F)cc3)cc2C(=O)N(Cc2ncccn2)C1([2H])[2H] [II-174, 2,2,3,3-tetradeutero-4-(pyrimidin-2-ylmethyl)-7-(4-(trifluoromethoxy)phenyl)-3,4-dihydrobenzo[f][1,4]oxazepin-5(2H)-one] | 48%
14 | C[C@@H]1COc2ccc(-c3ccc(C(F)(F)F)cc3)cc2C(=O)N1 [II-19, (R)-3-methyl-7-(4-(trifluoromethyl)phenyl)-3,4-dihydrobenzo[f][1,4]oxazepin-5(2H)-one] | 21%
15 | C[C@@H]1CN(C(=O)c2ncccn2)Cc2cc(-c3ccc(OC(F)(F)F)cc3)ccc2O1 [III-38, (R)-(2-methyl-7-(4-(trifluoromethoxy)phenyl)-2,3-dihydrobenzo[f][1,4]oxazepin-4(5H)-yl)(pyrimidin-2-yl)methanone] | 28%

Source: patent publication US9676760B2, “Fused heterocyclic compounds as ion channel modulators” (Gilead Sciences, Inc., priority 2011, dated 2017)
